Experimental data published in US8853406B2, “Substituted phenylenediamines as inhibitors of the interaction between MDM2 and P53” (Janssen Pharmaceutica NV, priority 2007, dated 2014).

How the values were obtained:
[1] = Physical properties of the solid state forms; type: physicochemical
Protocol: Form I was denoted as a crystalline, non-hygroscopic solid that melts at approximately 192° C. Form II was described as a crystalline solid with a melting point at approximately 186° C.

[2] = Crystallographic stability of Form I (TGA, DSC, XRPD, IR after storage); type: physicochemical; set-up: key to XRD / IR: ~Ref: identical with reference; Cryst.: crystalline
Protocol: The crystallographic stability of Form I of compound No. 1 was studied according to the following procedure:
after storage of the compound in open conditions for a period of six weeks at room temperature (RT) under <5%, 56% and 75% relative humidity (RH), 50° C. and 40° C./75% RH., the samples were analyzed with thermogravimetry (TGA), differential scanning calorimetry (DSC), X-ray powder diffraction (XRPD) and infrared spectroscopy (IR).

[3] = Chemical stability of Form I (HPLC and visual inspection after storage); type: physicochemical
Protocol: The chemical stability of Form I of compound No. 1 was studied according to the following procedure:
Form I was stored in different open conditions for periods of 1, 4 and 8 weeks. These conditions are 40° C./75% RH, 50° C., RT/<5% RH, RT/56% RH, RT/75% RH and 0.3 da ICH light.
The compounds were analyzed after storage by HPLC and by visual inspection.

[4] = Slurry conversion experiment; type: physicochemical; conditions: various solvents, 50° C., 24 hours
Protocol: Concentrated/saturated solutions of compound No. 1 drug substance were prepared at 50° C. in 13 different solvents (water, methanol, ethanol, 2-propanol, acetone, acetonitrile, toluene, tetrahydrofuran, dichloromethane, 2-butanone, ethyl acetate, dimethylformamide, 1-methoxy-2-propanol) to support the automated polymorph screen. […] The slurry solids were retrieved from their solvent systems, dried under an air stream, placed under vacuum at room temperature overnight, and then analyzed for slurry conversion using XRD.

[5] = tested on: p53 in A2780 cells; test: p53 ELISA in A2780 cells (capacity to preserve p53); type: cell-based; conditions: lowest dose giving at least 140% of the p53 value of the control, 16 hours
Protocol: The capacity of the compounds to preserve p53 in A2780 cells was measured with the p53 enzyme linked immunosorbent assay. The p53 assay is a “sandwich” enzyme immunoassay employing two polyclonal antibodies. A polyclonal antibody, specific for the p53 protein, has been immobilized onto the surface of the plastic wells. Any p53 present in the sample to be assayed will bind to the capture antibody. The biotinylated detector polyclonal antibody also recognizes p53 protein, and will bind to any p53, which has been retained by the capture antibody. The detector antibody, in turn, is bond by horseradish peroxidase-conjugated streptavidin. The horseradish peroxidase catalyses the conversion of the chromogenic substrate o-phenylene diamine, the intensity of which is proportional to the amount of p53 protein bond to the plate. The colored reaction product is quantified using a spectrophotometer. Quantitation is achieved by the construction of a standard curve using known concentrations of purified recombinant HIS tagged p53 protein (see example C.1.).
A2780 cells (ATCC) were cultivated in RPMI 1640 supplemented with 10% fetal calf serum (FCS), 2 mM L-glutamine and gentamycin at 37° C. in a humidified incubator with 5% CO2.
A2780 cells were seeded at 20.000 cells per well in a 96 well plate, cultured for 24 hours and treated with compound for 16 hours at 37° C. in a humidified incubator. After incubation, the cells were washed once with phosphate-buffered saline and 30 μl, per well, low salt RIPA buffer (20 mM tris, pH7.0, 0.5 mM EDTA, 1% Nonidet P40, 0.5% DOC, 0.05% SDS, 1 mM PMSF, 1 μg/ml aprotinin and 0.5 μ/ml leupeptin) was added. Plates were placed on ice for 30 minutes to complete the lysis. p53 protein was detected in de lysates by using the sandwich ELISA, described below.
High binding polystyrene EIA/RIA 96 well plates (Costar 9018) were coated with the capture antibody pAb1801 (Abcam ab28-100) at a concentration of 1 μg/ml in coating buffer (0.1 M NaHCO3 pH8.2), 50 μl per well. The antibody was allowed to adhere overnight at 4° C. Coated plates were washed once with phosphate-buffered saline (PBS)/0.05% Tween 20 and 300 μl of blocking buffer (PBS, 1% bovine serum albumins (BSA)) was added, for an incubation period of 2 hours at room temperature. Dilutions of purified recombinant HIS tagged p53 protein, ranging from 3-200 ng/ml, were made in blocking buffer and used as standards.
Plates were washed twice with PBS/0.05% Tween 20 and blocking buffer or standards were added at 80 μl/well. To the standards, 20 μl of lysis buffer was added. The samples were added to the other wells at 20 μl lysate/well. After an overnight incubation at 4° C., plates were washed twice with PBS/0.05% Tween 20. Aliquots of 100 μl secondary polyclonal antibody p53(FL-393) (Tebubio, sc-6243) at a concentration of 1 μg/ml in blocking buffer were added to each well and allowed to adhere for 2 hours at room temperature. Plates were washed three times with PBS/0.05% Tween 20. Detection antibody anti-rabbit HRP (sc-2004, Tebubio) at 0.04 μg/ml in PBS/1% BSA was added and incubated for 1 hour at room temperature. Plates were washed three times with PBS/0.05% Tween 20 and 100 μl of substrate buffer was added (substrate buffer was prepared shortly before use by adding 1 tablet of 10 mg o-phenylene diamine (OPD) from Sigma and 125 μl 3% H2O2 to 25 ml OPD buffer: 35 mM citric acid, 66 mM Na2HPO4, pH5.6). After 5 to 10 minutes, colour reaction was stopped by adding 50 μl stop buffer (1 M H2SO4) per well. The absorbance at dual wavelengths of 490/655 nm was measured using a Biorad micro plate reader and the results were then analyzed.
For each experiment, controls (containing no drug) and a blank incubation (containing no cells or drugs) were run in parallel. The blank value was subtracted from all control and sample values. For each sample, the value of p53 (in absorbance units) was expressed as the percentage of the value for p53 present in the control. […]

[6] = tested on: p53 in U87MG cells; test: U87MG p53-elisa as described in EP1809622; type: cell-based; conditions: lowest dose giving at least 140% of the p53 value of the control
[7] = tested on: Male NMRI mice; test: Ro-4-1284 antagonism in mice (drug induced neurological effects); type: in vivo; conditions: Ro-4-1284 antagonism in mice
Protocol: The test is a modification of a procedure described by Colpaert et al. (1975).^3 Male NMRI mice (22±3 g) were housed in macrolon observation cages (L×W×H: 11×12×17 cm; n=3 per cage). At the start of the experiments immediately before test compound administration, the initial body temperature of the mice was measured with a precision of 0.1° C. by inserting the thermo-sensitive probe (1.0 mm diameter) of an electric thermometer (Comark) to a constant depth of 3 cm into the esophagus until a stable reading was obtained. The right eye pupil diameter was measured with a graduated microscope and expressed in 1/24 mm units. Fifteen min after test compound administration, the mice were challenged with Ro-4-1284 (10 mg/kg, s.c.). Ro-4-1284 is a reserpine-like vesicular monoamine transport (VMAT-2) inhibitor, which rapidly depletes secretory vesicles.^3,4 Fifteen, 30 and 60 min after challenge, the mice were scored for palpebral opening (0, 1, 2, 3, 4, 5) and locomotor activity (−1, 0, 1, 2, 3). At the 60-min interval, immediately after the scoring of overt behavior, the right eye pupil diameter and the esophageal temperature were measured again. Abnormal phenomena such as intensive sniffing, chewing, rearing, hyperemia, piloerection, salivation, tremors, convulsions and death were noted (the latter phenomena were also noted when occurring before Ro-4-1284 administration). Criteria for drug-induced effects: reversal of ptosis: palpebral opening score >1 at 15, 30 or 60 min (2.7, 0.5 and 0% false positive controls, respectively; n>350); induction of prostration: score −1 for locomotion at 15, 30 or 60 min (never observed in controls); reversal of hypomotility: score >0 for locomotion at 15, 30 and 60 min (2.2, 0.8 and 0% false positive controls, respectively); reversal of miosis: pupil diameter >5 units at 60 min (0.8% false positives); potentiation of hypothermia: temperature decrease (over the 1-h time interval)>9.0° C. (1.4% false positives); reversal of hypothermia: temperature decrease <3.0° C. (1.8% false positives).
According to the standard procedure, R0-4-1284 is injected 15 min following subcutaneous or oral administration and observations start 15 min later. Doses are initially given to 3 animals. When at least 2 out of the 3 animals show activity for at least one of the observations, the compound is considered active.

Cc1cc(Nc2ccnc3c2CCC3O)ccc1NCCc1c[nH]c2c(C)cccc12 (stereo not drawn) [Form I]
hygroscopicity [1]: non-hygroscopic
App ([2]; 0 days): brown-grey
DSC Max ([2]; 0 days): 192.1 °C
DSC ΔH ([2]; 0 days): 122 J/g
IR ([2]; 0 days): Cryst., Ref
TGA <175° C. ([2]; 0 days): 0.05%
TGA <225° C. ([2]; 0 days): 0.19%
XRD ([2]; 0 days): Cryst., Ref
crystallographic stability ([2]; open storage six weeks, all conditions): crystallographically stable
App ([2]; six weeks open, 40° C./75% RH): brown-grey
DSC Max ([2]; six weeks open, 40° C./75% RH): 191.7 °C
DSC ΔH ([2]; six weeks open, 40° C./75% RH): 123 J/g
IR ([2]; six weeks open, 40° C./75% RH): ~Ref
TGA <175° C. ([2]; six weeks open, 40° C./75% RH): 0.06%
TGA <225° C. ([2]; six weeks open, 40° C./75% RH): 0.19%
XRD ([2]; six weeks open, 40° C./75% RH): ~Ref
App ([2]; six weeks open, 50° C.): brown-grey
DSC Max ([2]; six weeks open, 50° C.): 191.6 °C
DSC ΔH ([2]; six weeks open, 50° C.): 122 J/g
IR ([2]; six weeks open, 50° C.): ~Ref
TGA <175° C. ([2]; six weeks open, 50° C.): 0%
TGA <225° C. ([2]; six weeks open, 50° C.): 0.2%
XRD ([2]; six weeks open, 50° C.): ~Ref
App ([2]; six weeks open, RT/56% RH): brown-grey
DSC Max ([2]; six weeks open, RT/56% RH): 191.8 °C
DSC ΔH ([2]; six weeks open, RT/56% RH): 108 J/g
IR ([2]; six weeks open, RT/56% RH): ~Ref
TGA <175° C. ([2]; six weeks open, RT/56% RH): 0.15%
TGA <225° C. ([2]; six weeks open, RT/56% RH): 0.2%
XRD ([2]; six weeks open, RT/56% RH): ~Ref
App ([2]; six weeks open, RT/75 % RH): brown-grey
DSC Max ([2]; six weeks open, RT/75 % RH): 191.7 °C
DSC ΔH ([2]; six weeks open, RT/75 % RH): 112 J/g
IR ([2]; six weeks open, RT/75 % RH): ~Ref
TGA <175° C. ([2]; six weeks open, RT/75 % RH): 0.14%
TGA <225° C. ([2]; six weeks open, RT/75 % RH): 0.25%
XRD ([2]; six weeks open, RT/75 % RH): ~Ref
App ([2]; six weeks open, RT/<5% RH): brown-grey
DSC Max ([2]; six weeks open, RT/<5% RH): 191.7 °C
DSC ΔH ([2]; six weeks open, RT/<5% RH): 125 J/g
IR ([2]; six weeks open, RT/<5% RH): ~Ref
TGA <175° C. ([2]; six weeks open, RT/<5% RH): 0%
TGA <225° C. ([2]; six weeks open, RT/<5% RH): 0.31%
XRD ([2]; six weeks open, RT/<5% RH): ~Ref
Appearance ([3]; 0.3da ICH light (1 week)): brown-grey
HPLC Sum of impurities ([3]; 0.3da ICH light (1 week)): 0.18%
Appearance ([3]; 40° C./75% RH, 1 week): brown-grey
HPLC Sum of impurities ([3]; 40° C./75% RH, 1 week): 0.13%
Appearance ([3]; 40° C./75% RH, 4 weeks): brown-grey
HPLC Sum of impurities ([3]; 40° C./75% RH, 4 weeks): 0.14%
Appearance ([3]; 40° C./75% RH, 8 weeks): brown-grey
HPLC Sum of impurities ([3]; 40° C./75% RH, 8 weeks): 0.2%
Appearance ([3]; 50° C., 1 week): brown-grey
HPLC Sum of impurities ([3]; 50° C., 1 week): 0.28%
Appearance ([3]; 50° C., 4 weeks): brown-grey
HPLC Sum of impurities ([3]; 50° C., 4 weeks): 0.14%
Appearance ([3]; 50° C., 8 weeks): brown-grey
HPLC Sum of impurities ([3]; 50° C., 8 weeks): 0.24%
Appearance ([3]; RT/56% RH, 4 weeks): brown-grey
HPLC Sum of impurities ([3]; RT/56% RH, 4 weeks): 0.22%
Appearance ([3]; RT/56% RH, 8 weeks): brown-grey
HPLC Sum of impurities ([3]; RT/56% RH, 8 weeks): 0.24%
Appearance ([3]; RT/75% RH, 4 weeks): brown-grey
HPLC Sum of impurities ([3]; RT/75% RH, 4 weeks): 0.2%
Appearance ([3]; RT/75% RH, 8 weeks): brown-grey
HPLC Sum of impurities ([3]; RT/75% RH, 8 weeks): 0.18%
Appearance ([3]; RT/<5% RH, 4 weeks): brown-grey
HPLC Sum of impurities ([3]; RT/<5% RH, 4 weeks): 0.19%
Appearance ([3]; RT/<5% RH, 8 weeks): brown-grey
HPLC Sum of impurities ([3]; RT/<5% RH, 8 weeks): 0.24%
Appearance ([3]; Reference (1 week)): brown-grey
HPLC Sum of impurities ([3]; Reference (1 week)): 0.23%
chemical stability ([3]; open storage 1, 4 and 8 weeks, all investigated conditions): chemically stable in all investigated conditions
form conversion when slurried [4]: No form conversion was observed

Cc1cc(Nc2ccnc3c2CCC3O)ccc1NCCc1c[nH]c2c(C)cccc12 (stereo not drawn) [compound 3]
A2780 p53-elisa LAD [5]: 1.00E-07

OC1CCc2c(Nc3ccc(NCCc4c[nH]c5ccccc45)cc3)ccnc21 (stereo not drawn) [drawing 33]
U87MG p53-elisa LAD [6]: 1.00E-06
drug induced neurological side effects [7]: yes
A2780 p53-elisa LAD [5]: 1.00E-07

OC1CCc2c(Nc3ccc(NCCc4c[nH]c5ccccc45)cc3)ccnc21 (stereo not drawn) [drawing 34]
U87MG p53-elisa LAD [6]: 1.00E-07
drug induced neurological side effects [7]: yes
A2780 p53-elisa LAD [5]: 3.00E-07
